# Measured values taken from patent US20060183221A1, “Method for neural differentiation of embryonic stem cells using protease passaging techniques” (priority 2003, published 2006).
# Entries after “also recorded” stand apart in the source; their conditions may differ.
# What was measured:
# SSEA4 selected HESCs = assay: Neural differentiation of SSEA4 selected bulk passaged HESCs as serum free embryoid bodies with or without MEDII and S18, seeded and immunostained; format: cell-based, human; settings: with or without 10 μM S18 from day 13 to day 17
# Procedure: Cultures were treated with or without 10 μM S18 from day 13 to day 17. After S18 treatment, serum free embryoid bodies were washed several times and cultured further until day 18. Serum free embryoid bodies were cut into pieces to seed down to polyornithine/laminin coated slides.
# In the presence of MEDII, a consistently high proportion of the culture contained TH+ neurons, with the background of non-neural regions that was negative for the neuronal marker βIII-Tubulin typically lower than 10%. It was not determined whether the effect of MEDII induced more efficient neuralization or inhibited the generation of non-neural cell types. […] This proportion was determined by analysis of double staining of neural extensions for βIII-Tubulin and TH (FIG. 18), and overlaying Hoffman images with TH immunofluorescence (FIG. 19). The increase in the proportion of TH+ neurons in MEDII treated differentiations appeared to be due to the overall increase in neuronal differentiation, rather than an effect on the proportion of neurons that were dopaminergic, because the proportions of neurons that were TH+ in differentiations not exposed to MEDII was equally high. Another marker of DA cells, VMAT, was expressed in similarly high proportions of cells within the sfEBM cultures. TH+/VMAT−, TH−/VMAT+ and TH+/VMAT+ cells were observed (FIG. 20), possibly indicating temporal variability in the induction of expression of these markers prior to being co-expressed.
# sfEBMs in suspension = assay: S18 treatment of essentially serum free embryoid bodies (sfEBMs) in suspension, histology and immunocytochemistry; format: cell-based, human
# Procedure: Essentially serum free embryoid bodies (sfEBMs) were generated as described in Example 6, and were exposed to S18 at different stages of their development in order to assess the timing of depletion of high Oct4 expressing cells, and in order to determine when neural rosettes could be selected. The sfEBMs in suspension were treated with 10 μM S18 in 50% DMEM/F12, 50% MEDII, supplemented with 1×N2, Glutamine (20 mM), penicillin (0.5 U/ml), and streptomycin (0.5 U/ml) for varying amounts of time, and the sfEBMs were then evaluated histologically and by immunocytochemistry.
# Essentially serum free embryoid bodies were derived from protease passaged cells and grown in the presence of 50% MEDII conditioned medium. The embryoid bodies were exposed to 10 μM S18 in the same medium from day 6 to 9 after derivation. At day 9 the S18 treated sfEBMs and matched control sfEBMs not exposed to S18 were fixed, embedded in plastic, cut to 3 micron sections and stained with DAPI to enable the precise determination of the proportion of the total healthy nuclei of an sfEBM that were rosette cell nuclei.
# This material was exposed to 10 μM S18 in 50% MEDII medium for 2 days, followed by manual passaging, and an additional 4 days in 10 μM S18 in the same medium. […] The non-rosette regions of the sfEBM fragmented when manipulated and released extensive stringy material that was indicative of genomic DNA from lysed cells. […] The rosette pieces were incubated in 10 μM S18 for a further 4 days, and the medium was then switched to 50% DMEM/F12, 50% MEDII, supplemented with 1×N2, and 4 ng/ml FGF-2 at day 20 after the initial derivation of the embryoid bodies.
# At day 21 some ceramide selected sfEBMs were seeded onto polyornithine/laminin coated slides, cultured in the same medium for an additional 8 days, and fixed for immunostaining. These seeded pieces developed as rosette cultures and mats of neurons were observed differentiating from these precursors.
# Essentially serum free embryoid bodies were derived from manually passaged cells, or protease passaged cells. EBs derived from protease passaged cells were formed in the presence of 50% MEDII conditioned medium. The embryoid bodies were exposed to 10 μM S18 in the same medium from day 6 to 9 after derivation. At day 9 the S18 treated sfEBMs matched control sfEBMs not exposed to S18, and matched control manually passaged sfEBs were sectioned to enable the precise determination of the proportion of the total healthy nuclei of an sfEBM that were rosette cell nuclei. The serum free embryoid bodies were embedded using the Immuno-Bed kit (Polysciences, Inc.). Serum free embryoid bodies were rinsed with 1×PBS and fixed in 4% paraformaldehyde, 4% sucrose in 1×PBS for 30 minutes at 4° C. The cells were then washed in 1×PBS and stored at 4° C. PBS was removed and the embryoid bodies were dehydrated by incubation in a series of 25%, 50%, 75% Ethanol/PBS for 5 minutes at room temperature, followed by 100% Ethanol. Infiltration solution was made by adding 0.25 g Benzoyl Peroxide to 20 ml Immuno-Bed Solution A. The ethanol was removed from the serum free embryoid bodies and 1 ml infiltration solution was added. After one hour, the infiltration solution was changed for three 20 min incubations. For embedding, 1 ml solution B (accelerator) was added to 25 ml fresh infiltration solution. The infiltration solution was removed from the serum free embryoid bodies and 0.5 ml embedding solution was added. The samples were transferred to a mold, a block holder was added and the mold was placed at 4° C. to set. 3 micron sections were cut using a Leica microtome, and were stained with DAPI.
# [1] = sfEBMs at day 14, 48 hours exposure to 10 μM S18
smiles,measurement,setting,value
"CCCCCCCC/C=C\CCCCCCCC(=O)NC(CO)CO [S18, N-(2-hydroxy-1-(hydroxymethyl)ethyl)-oleoylamide]","differences between S18− and S18+ cultures (sfEB, sfEBM)",SSEA4 selected HESCs,No gross morphological or immunocytochemical staining differences were observed
same,derivation of sfEBMs from monolayer crater cells,"sfEBMs in suspension; 10 μM S18, four days of treatment",No viable embryoid bodies were observed
same,regions or cells of high Oct4 expression (residual pluripotent cells),"sfEBMs in suspension; 10 μM S18 in suspension, then seeded, anti-Oct4 immunostaining",no regions of high Oct4 expression could be detected; also recorded: do not exhibit any cells expressing high levels of Oct4
same,mitotic activity of neural rosette precursor cells (PhosphoHistone H3),"sfEBMs in suspension; day 28 after derivation, 8 days after withdrawal of S18",still mitotically active
same,apoptosis in the embryoid bodies,sfEBMs in suspension; [1],extensive apoptosis in the bodies
same,morphology of rosette regions,sfEBMs in suspension; [1],morphologically normal
same,surviving cells in DAPI stained sections of sfEBMs,"sfEBMs in suspension; sfEBMs from SSEA4 selected protease passaged HESCs, 10 μM S18 from day 6 to 9",highly enriched population of neural rosette cells; also recorded: nearly all nuclei in the treated sfEBM were elongated in appearance; also recorded: Nearly all cells exhibited a radial nuclear staining
